In patent US9328137B2, “Hydrogel-forming material” (NISSAN CHEMICAL INDUSTRIES, LTD., priority 2011, dated 2016):
Residues, ends and D or L forms follow the SMILES beside them. *: point of attachment. Palmitoyl = CCCCCCCCCCCCCCCC(=O)*

Tests used:
[1] = Evaluation of solubility of N-palmitoyl-Gly-His with each additive (heating and stirring at 80° C., open system, visual inspection); format: physicochemical; details: 0.05% or greater acetic acid, sodium acetate or phosphoric acid, 0.1% disodium hydrogen phosphate or trisodium citrate, 0.5% citric, succinic, tartaric, lactic acid or their sodium salts, 1.0% trimellitic acid or trisodium trimellitate
Protocol: Next, heating and stirring were performed, with a cap of the screw bottle being open (that is, an open system), in a water bath (NWB-180N, manufactured by Nissinrika K. K.) for 60 minutes at a maximum until a transparent dispersion state was confirmed at 80° C. […] Next, heating and stirring were performed, with a cap of the screw bottle being open, in a water bath (NWB-180N, manufactured by Nissinrika K. K.) for 60 minutes at 80° C.
Next, heating and stirring were performed, with a cap of the screw bottle being open, in a water bath (NWB-180N, manufactured by Nissinrika K. K.) for 60 minutes at a maximum until a transparent dispersion state was confirmed at 80° C.

[2] = Evaluation of hydrogelation ability (overnight cooling at room temperature, inversion of the bottle); format: physicochemical; details: same additive amounts as; after stirring at 80° C. in an open system
Excerpt: Next, the solution was allowed to cool at room temperature overnight.

SMILES: CCCCCCCCCCCCCCCC(=O)NCC(=O)N[C@@H](Cc1c[nH]cn1)C(=O)O [N-palmitoyl-Gly-His] (Palmitoyl-Gly-His-OH)
- dissolution in water (summary of Examples 1 to 14, in words) [1]: could be easily dissolved in water
- hydrogel formation (summary of Examples 1 to 14, in words) [2]: a hydrogel could be obtained
